In US20220117920A1, “N-Aryl Benzenesulfonamides as Protonophores for the Treatment of Cancers, Metabolic Diseases and Traumatic Brain Injury” (University of Kentucky Research Foundation, priority 2019, published 2022):

Legend:
Type in all cases: cell-based, human
Wnt signaling = experiment: Wnt reporter assay, stable HEK293T cell line containing TOPFlash reporter, LiCl-activated; settings: 3 μM
Source text: To identify novel Wnt regulators by high throughput screening, a stable HEK293T cell line containing the TOPFlash reporter was established. To identify Wnt inhibitors that targeted molecular events downstream of β-catenin, we treated these cells with lithium chloride to inhibit GSK3 and to stabilize β-catenin. […] We also validated the results by transient transfection of Super 8× TOPFlash or 8× FOPFlash into HEK293T cells. […] Since the results from the stable and transient transfection are compatible, we used stable cell lines for all of the other experiments.
Reporter assay. Wnt reporter assay and cell staining assay have been described previously. We subcloned Super 8×TOPFlash (provided by Professor Randall Moon, University of Washington) into the pGL4.83 [hRlucP/Puro] Vector and transfected it into HEK293T cells. A stable HEK293T cell line containing the TOPFlash reporter was established using puromycin selection. To screen Wnt inhibitors that block the downstream signaling transduction pathway of β-catenin, we treated the reporter cells with 25 mM LiCl to stabilize β-catenin and activate Wnt signaling. The potential Wnt inhibitors identified from screening were validated by transfecting TOPFlash or FOPFlash plus control renilla reporters into HEK293T cells, and then treating the cells with DMSO or testing compounds in DMSO solution. The Wnt signaling was activated by LiCl or Wnt3A treatment.

DLD-1 cells = experiment: Seahorse uncoupling assay (OCR) in DLD-1 cells; settings: testing compound 3 μM
Experimental: Seahorse assay. Approximately 3×10^4 cells were seeded in XF96 Cell Culture microplate (80 μL of 3.75×10^5 cells/mL) for all experiments. On the next day, cell culture media were replaced with either Seahorse XF modified media with 25 mM glucose and 1 mM pyruvate. After media exchange, cells were treated with 1 μM of oligomycin A, 1.0 μM FCCP and mixture of 1.0 μM of rotenone and 1.0 μM of antimycin A in standard mitochondrial stress test conditions. To determine the uncoupler effects, FCCP was replaced with an equal volume of DMSO, or a compound to be tested in DMSO solution. ATP production rate was analyzed using Agilent Seahorse XF Real-Time ATP Rate Assay.

Huh7 cells [1] = experiment: Cyto-ID autophagy detection assay in Huh7 cells; settings: Huh7, 40 h, ±50 μM CQ
Experimental: Autophagy responses were monitored with the Cyto-ID autophagy detection reagent 2.0 (Enzo Life Sciences, USA) according to the manufacturer's instructions. Huh7 and PLC/PRF/5 cells were seeded in 12-well plates and treated the following day with drugs or DMSO vehicle control at the indicated concentrations. CQ was added to the corresponding wells to a final concentration of 50 μM 8 h prior harvesting. After 40 h of drug treatment, cells were collected and assessed for viability with Zombie Violet dye solution (BioLegend, USA) followed by Cyto-ID autophagy detection reagent staining. Flow cytometry analyses were performed in a BD LSRII at the Flow Cytometry and Cell Sorting Shared Resource Facility of the University of Kentucky Markey Cancer Center and data were analyzed with the FlowJo Software version 7.6.5 (Tree Star, USA). The autophagic flux was quantified by subtracting the Cyto-ID MFI value of the sample without CQ from the Cyto-ID MFI value of the sample with CQ for each condition according to the formula: […]

Wnt/β-catenin pathway = experiment: TOP-Flash TCF4-dependent dual luciferase reporter assay in Huh7 cells; settings: Huh7, 10 mM LiCl
Experimental: Cells were plated at 1×10^5 cells/well in 24-well plates and transiently transfected with 490 ng of luciferase-reporter plasmid and 10 ng of phRL-TK per well using the Turbofect transfection reagent (Thermo Scientific, USA). After 5-6 h post-transfection, cells were treated with drug(s) or DMSO vehicle control for 36 h in the presence or absence of LiCl (10 mM). Luciferase assays were performed using the Dual Luciferase Assay System (Promega, USA) according to manufacturer's instructions.

[2] = test system: Wnt/β-catenin target genes; experiment: Expression of downstream β-catenin targets in Huh7 cells (western blot, RT-qPCR); settings: Huh7, 36 h
Experimental: Primary antibodies are described in Table 1.
Total RNA was extracted with miRNeasy mini kit (Qiagen, Germany), and the corresponding cDNA was produced using iScript cDNA synthesis kit (BioRad, USA) from 1 μg of total RNA. Real time quantitative PCR (RT-qPCR) was performed using SsoAdvanced Universal SYBR Green supermix (BioRad, USA) with specific primers: p62 (SQSTM1: 5′-[…]-3′ (SEQ ID NO: 1) and 5′-[…]-3′ (SEQ ID NO: 2)); c-MYC (cMYC: 5′-[…]-3′ (SEQ ID NO: 3) and 5′-[…]-3′ (SEQ ID NO: 4)), Survivin (BIRC5, 5′-[…]-3′ (SEQ ID NO: 5) and 5′-[…]-3′ (SEQ ID NO: 6)), AXIN 2 (AXIN2: 5′-[…]-3′ (SEQ ID NO: 7) and 5′-[…]-3′ (SEQ ID NO: 8)), Cyclin D1 (5′-CCND1: […]-3′ (SEQ ID NO: 9) and 5′-[…]-3′ (SEQ ID NO: 10)), and b2-microglobulin (B2M: 5′-[…]-3′ (SEQ ID NO: 11) and 5′-[…]-3′ (SEQ ID NO: 12)). Transcript levels were normalized to β-actin or […] level as indicated using the ΔΔCt method.

Huh7 cells [3] = experiment: Seahorse mitochondrial stress test (OCR) in Huh7 cells; settings: Huh7, 24 h
Experimental: Oxygen Consumption Rates (OCR) were measured on an XF-96 Extracellular Flux Analyzer (Seahorse Bioscience) using the protocol and conditions optimized for HCC cells as previously described by our group. Briefly, the experiments were performed by seeding 10,000 and 20,000 Huh7 cells per well in XFe 96 well-plates 36 h before the experiment. Cells were treated for 24 h with FH535, FH535-N or vehicle control. In OCR experiments the media was supplemented with 25 mM Glucose and 1 mM Pyruvate just before the assay. After minimal incubation time (˜20-30 min in non-CO2 37° C. incubator) mitochondrial stress test was initiated. […] All reagents used in the Seahorse experiments were purchased from Sigma-Aldrich. Analyses of data were performed with Wave 2.2 software (Seahorse Bioscience), Excel (Microsoft Office 2013) and Prism 7.0 (GraphPad Software).

## Cc1cc([N+](=O)[O-])ccc1NS(=O)(=O)c1cc(Cl)ccc1Cl [FH535, 2,5-dichloro-N-(2-methyl-4-nitrophenyl)benzenesulfonamide]
Wnt signaling
  inhibition of Wnt signaling: inhibited Wnt signaling
DLD-1 cells
  uncoupling: OCR inhibited by oligomycin: increased OCR inhibited by oligomycin
Huh7 cells [1]
  autophagic flux (Cyto-ID): reduced accumulation of autophagic vesicles
Wnt/β-catenin pathway
  Wnt/β-catenin transcriptional activity (TOP-Flash): target the Wnt/β-catenin signaling pathway
[2]
  expression of downstream Wnt/β-catenin target genes: reduced expression of endogenous downstream β-catenin target genes
Huh7 cells [3]
  Proton Leak: enhanced Proton Leak
